Assay results published in patent publication US9464082B2, “Aryl and arylalkyl substituted pyrazolyl and pyrimidinyl tricyclic enones as antioxidant inflammation modulators” (AbbVie Inc., priority 2014, dated 2016).

System: IFNγ-Induced NO Production
Assay: Nitric Oxide Suppression Assay (Suppression of IFNγ-Induced NO Production)
Format: cell-based
Conditions: RAW264.7; RAW 264.7 mouse macrophage cells; 2 hour pre-treatment with compound (3 μM to 0.3 nM, 10 point curve); 20 ng/mL interferon gamma, ~18 hour; Griess detection; n=2-3 in duplicates
In short: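 Mouse RAW 264.7 macrophages pre-treated 2 h at 37 °C with compound (3 μM to 0.3 nM, 10 points; DMSO ≤1%), then stimulated with 20 ng/mL interferon gamma for ~18 h. Supernatant nitrite measured by Griess reaction, absorbance 520–550 nm. IC50 from curve fit of signal normalised to IFNγ alone, mean n=2-3 in duplicate.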

SMILES: Cc1nc(-c2cccc(O)c2)c2c(n1)[C@@]1(c3ccccc3)C=C(C#N)C(=O)[C@@H](C)[C@@H]1CC2 [Example 109, (6aS,7S,10aR)-4-(3-hydroxyphenyl)-2,7-dimethyl-8-oxo-10a-phenyl-5,6,6a,7,8,10a-hexahydrobenzo[h]quinazoline-9-carbonitrile]
- IC50: 2.87 nM

SMILES: C[C@@H]1C(=O)C(C#N)=C[C@]2(c3ccccc3)c3n[nH]c(-c4cccc(NS(C)(=O)=O)c4)c3CCC12 (stereo partly drawn) [Example 113, N-{3-[(6S,9aR)-8-cyano-6-methyl-7-oxo-9a-phenyl-4,5,5a,6,7,9a-hexahydro-2H-benzo[g]indazol-3-yl]phenyl}methanesulfonamide]
- IC50: 43 nM

SMILES: Cc1nc(-c2cnc(C)s2)c2c(n1)[C@@]1(c3ccccc3)C=C(C#N)C(=O)[C@@H](C)[C@@H]1CC2 [Example 18, (6aS,7S,10aR)-2,7-dimethyl-4-(2-methyl-1,3-thiazol-5-yl)-8-oxo-10a-phenyl-5,6,6a,7,8,10a-hexahydrobenzo[h]quinazoline-9-carbonitrile]
- IC50: 5.17 nM

SMILES: C[C@@H]1C(=O)C(C#N)=C[C@]2(c3cccc(F)c3)c3n[nH]c(-c4cccc(CCCO)c4)c3CCC12 (stereo partly drawn) [Example 78, (6S,9aR)-9a-(3-fluorophenyl)-3-[3-(3-hydroxypropyl)phenyl]-6-methyl-7-oxo-4,5,5a,6,7,9a-hexahydro-2H-benzo[g]indazole-8-carbonitrile]
- IC50: 21.8 nM

SMILES: C[C@@H]1C(=O)C(C#N)=C[C@]2(c3ccccc3)c3n[nH]c(-c4cncnc4)c3CC[C@@H]12 [Example 87, (5aS,6S,9aR)-6-methyl-7-oxo-9a-phenyl-3-(pyrimidin-5-yl)-4,5,5a,6,7,9a-hexahydro-2H-benzo[g]indazole-8-carbonitrile]
- IC50: 4.18 nM

SMILES: C[C@@H]1C(=O)C(C#N)=C[C@]2(c3cccc(C(=O)Nc4ccccc4)c3)c3ncncc3CC[C@@H]12 [Example 95, 3-[(6aS,7S,10aR)-9-cyano-7-methyl-8-oxo-6,6a,7,8-tetrahydrobenzo[h]quinazolin-10a(5H)-yl]-N-phenylbenzamide]
- IC50: 15.5 nM

SMILES: C[C@@H]1C(=O)C(C#N)=C[C@]2(c3ccccc3)c3c(c(-c4ccccc4)nn3C)CC[C@@H]12 (racemic) [Example 3, rac-(5aS,6S,9aR)-1,6-dimethyl-7-oxo-3,9a-diphenyl-4,5,5a,6,7,9a-hexahydro-1H-benzo[g]indazole-8-carbonitrile]
- IC50: 7.19 nM

SMILES: C[C@@H]1C(=O)C(C#N)=C[C@]2(c3ccccc3)c3nn(Cc4ccccc4)cc3CC[C@@H]12 (single isomer, unassigned) [Example 56]
- IC50: 93.2 nM

SMILES: C[C@@H]1C(=O)C(C#N)=C[C@]2(c3ccccc3)c3nn(C)c(-c4cccc(-c5ccc(C(N)=O)cc5)c4)c3CC[C@@H]12 [Example 171, 3′-[(5aS,6S,9aR)-8-cyano-2,6-dimethyl-7-oxo-9a-phenyl-4,5,5a,6,7,9a-hexahydro-2H-benzo[g]indazol-3-yl]biphenyl-4-carboxamide]
- IC50: 13.9 nM

SMILES: COC(=O)c1cccc([C@]23C=C(C#N)C(=O)[C@@H](C)[C@@H]2CCc2c[nH]nc23)c1 [Example 62, methyl 3-[(5aS,6S,9aR)-8-cyano-6-methyl-7-oxo-2,4,5,5a,6,7-hexahydro-9aH-benzo[g]indazol-9a-yl]benzoate]
- IC50: 39.4 nM

SMILES: C[C@@H]1C(=O)C(C#N)=C[C@]2(c3ccccc3)c3nn(C)c(-c4cncnc4)c3CC[C@@H]12 [Example 177, (5aS,6S,9aR)-2,6-dimethyl-7-oxo-9a-phenyl-3-(pyrimidin-5-yl)-4,5,5a,6,7,9a-hexahydro-2H-benzo[g]indazole-8-carbonitrile]
- IC50: 10.8 nM

SMILES: C[C@@H]1C(=O)C(C#N)=C[C@]2(Cc3ccccc3)c3c(cnn3C)CC[C@@H]12 (racemic) [Example 163, rac-(5aS,6S,9aR)-9a-benzyl-1,6-dimethyl-7-oxo-4,5,5a,6,7,9a-hexahydro-1H-benzo[g]indazole-8-carbonitrile]
- IC50: 406 nM

SMILES: C[C@@H]1C(=O)C(C#N)=C[C@]2(c3ccccc3)c3nc(Nc4ccccc4)nc(-c4cncnc4)c3CC[C@@H]12 [Example 16, (6aS,7S,10aR)-2-anilino-7-methyl-8-oxo-10a-phenyl-4-(pyrimidin-5-yl)-5,6,6a,7,8,10a-hexahydrobenzo[h]quinazoline-9-carbonitrile]
- IC50: 7.8 nM

SMILES: C[C@@H]1C(=O)C(C#N)=C[C@]2(c3ccc(F)cc3)c3n[nH]cc3CC[C@@H]12 [Example 54, (5aS,6S,9aR)-9a-(4-fluorophenyl)-6-methyl-7-oxo-4,5,5a,6,7,9a-hexahydro-2H-benzo[g]indazole-8-carbonitrile]
- IC50: 35.5 nM

SMILES: C[C@@H]1C(=O)C(C#N)=C[C@]2(c3ccccc3)c3nn(C(=O)CO)cc3CC[C@@H]12 [Example 42, (5aS,6S,9aR)-2-glycoloyl-6-methyl-7-oxo-9a-phenyl-4,5,5a,6,7,9a-hexahydro-2H-benzo[g]indazole-8-carbonitrile]
- IC50: 34.2 nM

SMILES: C[C@@H]1C(=O)C(C#N)=C[C@]2(c3ccc(O)cc3)c3n[nH]cc3CCC12 (stereo partly drawn) [Example 72, (6S,9aR)-9a-(4-hydroxyphenyl)-6-methyl-7-oxo-4,5,5a,6,7,9a-hexahydro-2H-benzo[g]indazole-8-carbonitrile]
- IC50: 37.9 nM

SMILES: C[C@@H]1C(=O)C(C#N)=C[C@]2(c3ccccc3)c3n[nH]c(-c4ccnnc4)c3CC[C@@H]12 [Example 140, (5aS,6S,9aR)-6-methyl-7-oxo-9a-phenyl-3-(pyridazin-4-yl)-4,5,5a,6,7,9a-hexahydro-2H-benzo[g]indazole-8-carbonitrile]
- IC50: 8.45 nM

SMILES: Cc1nc(-c2cccc(CCO)c2)c2c(n1)[C@@]1(c3ccccc3)C=C(C#N)C(=O)[C@@H](C)[C@@H]1CC2 [Example 47, (6aS,7S,10aR)-4-[3-(2-hydroxyethyl)phenyl]-2,7-dimethyl-8-oxo-10a-phenyl-5,6,6a,7,8,10a-hexahydrobenzo[h]quinazoline-9-carbonitrile]
- IC50: 18.8 nM

SMILES: CC(=O)OCCCc1cccc(-c2nc(C)nc3c2CC[C@H]2[C@H](C)C(=O)C(C#N)=C[C@]32c2ccccc2)c1 [Example 125, 3-{3-[(6aS,7S,10aR)-9-cyano-2,7-dimethyl-8-oxo-10a-phenyl-5,6,6a,7,8,10a-hexahydrobenzo[h]quinazolin-4-yl]phenyl}propyl acetate]
- IC50: 4.69 nM

SMILES: C[C@@H]1C(=O)C(C#N)=C[C@]2(c3ccccc3)c3nn(S(C)(=O)=O)cc3CC[C@@H]12 [Example 36, (5aS,6S,9aR)-6-methyl-2-(methylsulfonyl)-7-oxo-9a-phenyl-4,5,5a,6,7,9a-hexahydro-2H-benzo[g]indazole-8-carbonitrile]
- IC50: 69.3 nM

SMILES: C[C@@H]1C(=O)C(C#N)=C[C@]2(c3ccccc3)c3nc(-c4ccccc4)ncc3CC[C@@H]12 (racemic) [Example 7, rac-(6aS,7S,10aR)-7-methyl-8-oxo-2,10a-diphenyl-5,6,6a,7,8,10a-hexahydrobenzo[h]quinazoline-9-carbonitrile]
- IC50: 30.4 nM

SMILES: Cc1nc(-c2ccnnc2)c2c(n1)[C@@]1(c3ccccc3)C=C(C#N)C(=O)[C@@H](C)[C@@H]1CC2 [Example 172, (6aS,7S,10aR)-2,7-dimethyl-8-oxo-10a-phenyl-4-(pyridazin-4-yl)-5,6,6a,7,8,10a-hexahydrobenzo[h]quinazoline-9-carbonitrile]
- IC50: 49.4 nM

SMILES: C[C@@H]1C(=O)C(C#N)=C[C@]2(c3ccccc3)c3nn(C)c(-c4cccnc4)c3CC[C@@H]12 [Example 178, (5aS,6S,9aR)-2,6-dimethyl-7-oxo-9a-phenyl-3-(pyridin-3-yl)-4,5,5a,6,7,9a-hexahydro-2H-benzo[g]indazole-8-carbonitrile]
- IC50: 5.4 nM
